By IC50 is commonly meant the concentration that gives 50% inhibition. A lower IC50 goes with higher potency.

This assay relates to P. falciparum 3D7 growth, pLDH absorbance. Kind of assay: blood-stage malaria parasite growth potency – strain 3D7, dose response (AID 2305).
`Cc1cccc2[nH]c(-c3cccc(-c4cccc(NC(=O)Nc5ccc(Cl)c(Cl)c5)c4)c3)nc12`: the IC50 is 370 nM.
As to `COc1c(C2=CCN(CCCCNC(=O)c3ccc(-c4ccc(C#N)cc4)cc3)CC2)ccc2c1CCCC2`, the IC50 is 910 nM. Against the preceding molecule, the IC50 is about 2.5-fold higher.
The value for `FC(F)(F)c1ccc(CSc2ccc3nnc(-c4ccccn4)n3n2)cc1` was 820 nM; that for `O=c1cc(NCCCCNCc2cccc(Cl)c2)[nH]c2ccccc12` was 740 nM; that for `Cc1cc(C(=O)Nc2ccc3c(ccn3C3CCCN(Cc4ccc(C(F)(F)F)cc4F)CC3)c2)no1` (configuration not stated) was 760 nM.
The figure for `CC(Oc1ccc(Cl)cc1)C(=O)Nc1cc(C(F)(F)F)ccc1N1CCOCC1` (configuration not stated) is 530 nM.
The figure for `CNC(=O)c1cc(F)c(F)cc1Nc1nc(Nc2cccc(CS(C)(=O)=O)c2)ncc1Cl` is 1020 nM; for `Nc1ccc(-c2nc3c(ccc4ccccc43)[nH]2)cc1` it is 940 nM.
Molecule `Cc1ccc(C)c2sc(N3CCN(C(=O)c4ccc([N+](=O)[O-])o4)CC3)nc12` showed an IC50 of 820 nM. The IC50 values of the last two molecules are within 1.5-fold of each other.
The value for `N#Cc1ccc(NC(=Nc2ccccc2Br)N(C2CCCCC2)C2CCCCC2)c(O)c1` was 780 nM.
The value for `Cc1nn(CC(C)C)c2sc(C(=O)Nc3nc(-c4ccccn4)cs3)cc12` was 960 nM; that for `NCc1ccc(-c2cccc(CNC3CCN(Cc4ccccc4)CC3)c2)cc1` was 670 nM.
Turning to `O=C(NCCNc1nc(NCCNC(=O)Nc2ccccc2)c2ccc(=O)n(-c3c(F)cccc3F)c2n1)Nc1ccccc1`, the IC50 stood at 170 nM.
The figure for `CNCCNCc1ccc(-c2ccc(-c3nc4ccc(F)cc4[nH]3)cc2)cc1` is 390 nM.
The value for `Cc1cc(C(=O)Nc2ccc3c(c2)CCN3C2CCN(Cc3ccc4nsnc4c3)C2)no1` (configuration not stated) was 640 nM.
The value for `CC(CC(=O)NCC1(c2ccc(F)cc2Cl)CCOCC1)C(=O)c1ccc(Cl)cc1` (configuration not stated) was 860 nM; that for `CN1CCN(c2cc3c(cc2Cl)CCN3C(=O)Cc2ccc(NC(=O)Nc3cccc4ccccc34)cc2)CC1` was 970 nM.
As for `O=C(/C=C/c1ccc(Cl)c(Cl)c1)NCCCCCCN1CCCN(C(=O)Nc2ccc(Cl)c(C(F)(F)F)c2)CC1`, the IC50 was 560 nM.
The figure for `O=C(Nc1cccc(F)c1)N1CCC(NS(=O)(=O)c2ccc(Br)cc2)CC1` is 980 nM; for `Cc1cccc2[nH]c(-c3ccc(-c4cccc(CN5CCN(CCO)CC5)c4)cc3)nc12` it is 730 nM; for `CN1CC=C(c2c[nH]c3ccc(OCc4ccccc4)cc23)CC1` it is 720 nM.
The value for `CCNc1cc(C(=O)N[C@@H](Cc2ccccc2Cl)[C@H](O)CNC(C)CCCC(C)C)cc(N2CCCCS2(=O)=O)c1` (some centres not stated) was 930 nM.
With `CC(C)CNCc1cccc(-c2ccccc2CN(C(=O)Nc2ccccc2)C2CCN(Cc3ccccc3)CC2)c1`, the IC50 stood at 640 nM.
The value for `CC(C)N(Cc1cnc2nc(N)nc(N)c2n1)c1ccc(Cl)c(Cl)c1` was 160 nM; that for `CC(C)(C)NC(=O)c1ccc(Oc2ccc(OC(F)(F)F)cc2)c(NC(=O)C(C)(C)C)c1` was 980 nM; that for `CCc1cn2c3c(cc(C(=O)N[C@@H](Cc4cccc(Cl)c4)[C@H](O)CNC4CCOCC4)cc13)N(C)S(=O)(=O)CC2` was 40 nM.
In the case of `Cc1cc(NC(c2ccc(Cl)cc2)c2ccc3cccnc3c2O)no1` (configuration not stated), the IC50 is 1090 nM.
Consider `Cc1cc(C(F)(F)F)n2nc(C(=O)N(Cc3cncn3Cc3ccccc3F)CC3CC3)cc2n1`, for which the IC50 is 960 nM.
The value for `O=C(/C=C/c1ccc(Cl)c(Cl)c1)NC1CCC(CN2CCC(c3c[nH]c4ccncc34)CC2)CC1` (configuration not stated) was 400 nM; that for `CC(C)NCc1cccc(-c2cccc(-c3nc4ccc(F)cc4[nH]3)c2)c1` was 280 nM; that for `CCC[C@@H]1CCN[C@H]([C@H](O)c2ccnc3ccc(OC)cc23)C1` was 730 nM.
Molecule `COc1cc(NCCCNC(=O)c2cn(Cc3ccccc3)c3ccccc23)nc2ccccc12` registered an IC50 of 870 nM.
`Nc1nonc1-c1nc2c(-c3cccc(Cl)c3)nccc2n1CCCNC(=O)Cc1ccc(Cl)cc1` came in with an IC50 of 270 nM.
`O=C1CCCN1CCCNCc1cccc(-c2ccc(-c3nc4ccc(C(F)(F)F)cc4[nH]3)cc2)c1` had a half-maximal inhibitory concentration (IC50) of 300 nM.
`Cc1noc(C)c1-c1ccc(C(=C2CCCCCCC2)c2ccc(O)cc2)cc1` yielded an IC50 of 1050 nM.
The figure for `N[C@@H](CCNCc1ccc(-c2cccnc2)cc1)Cc1ccc(F)c(F)c1` is 800 nM.
As to `O=C(c1cc(-c2ccccc2O)on1)N1CCN(C(c2ccccc2)c2ccccc2)CC1`, the IC50 was determined as 340 nM.
The figure for `COc1cc(NC(=O)c2sc(-c3ccc(Cl)cc3)cc2Cl)ccc1OCCN1CCCC1` is 980 nM; for `Cc1cccc2[nH]c(-c3cccc(-c4cccc(NC(=O)Cc5cnc[nH]5)c4)c3)nc12` it is 670 nM.
The figure for `CN(CCC(O)c1ccc(Cl)c(Cl)c1)C[C@H]1C[C@@H]1C(=O)c1ccccc1` (some centres not stated) is 790 nM.
The molecule `CCNc1cc(C)nc(Nc2ccc(NC(=O)c3cccs3)cc2)n1` registered an IC50 of 1020 nM.
The molecule `COc1ccc2c(NN=Cc3cccc(Cl)c3)cc(C)nc2c1` gave an IC50 of 730 nM. This IC50 and that of the molecule before are within 1.5-fold of each other.
Molecule `O=C(NC1CCN(Cc2ccc(F)cc2)CC1)c1ccc(-c2cccc(C(F)(F)F)c2)s1` displayed an IC50 of 1360 nM. Compared with the last molecule, the IC50 is about 1.9-fold higher.
As to `CNC(=O)c1cnc(Nc2ccc(N3CCN(C)CC3)cc2)nc1Nc1cccc(OC)c1`, the IC50 was determined as 750 nM.
The value for `Fc1cccc(COc2ccc(Nc3ncnc4ccc(C#C[C@H]5CCCN5)cc34)cc2Cl)c1` was 880 nM; that for `N#Cc1ccc(N(CCOc2ccc(Cl)cc2)Cc2ccccc2C(F)(F)F)cc1C(F)(F)F` was 660 nM; that for `COc1ccc([C@@]23Oc4cc(OC)cc(OC)c4[C@]2(O)C2(CC3c3ccccc3)SCCCS2)cc1` (some centres not stated) was 120 nM.
`O=c1cc(NCCCNC2CCc3c(Cl)cc(Cl)cc32)[nH]c2ccccc12` (configuration not stated) gave an IC50 of 930 nM.
The figure for `O=C(Nc1ccc(F)c(Cl)c1)c1cc([N+](=O)[O-])cc2cn[nH]c12` is 320 nM; for `CCCNC(=O)Nc1cc2cc(-c3ccc(CN4CCCC4)cc3)ccc2n2c(C)nnc12` it is 1500 nM.
For the molecule `CCc1nc(N)nc(N)c1-c1ccc(F)c(F)c1`, the IC50 is 420 nM.
Regarding `Nc1cccc(CNCc2ccc(-c3cccc(-c4nc5ccccc5[nH]4)c3)cc2)c1`, the IC50 turned out to be 710 nM.
The figure for `C[C@@H](CNc1ccnc(Nc2ccc3[nH]c(=O)[nH]c3c2)n1)c1ccccc1` is 1100 nM; for `Nc1nc(N)c2c(Oc3cccc(Cl)c3)cccc2n1` it is 470 nM; for `c1cncc(CN2CCCN(c3ccc4c(c3)CCN(Cc3ccc(-c5ncc[nH]5)cc3)CC4)CC2)c1` it is 750 nM.
The value for `COc1ccccc1CCNC(=O)c1cnc(N2CCN(c3ccncc3)CC2)c(Cl)c1` was 1150 nM; that for `CC(=NNC(N)=O)C1=C(O)C(c2ccccc2)N(C2CCCCC2)C1=O` (configuration not stated) was 30 nM; that for `CNCC(O)c1cc(Cl)c(Cl)cc1C` (configuration not stated) was 920 nM.
Molecule `CCN(CCCN1CCCCC1)c1cc(C)nc(Nc2ccc(C)cc2Cl)n1` had an IC50 of 340 nM.
For `O=C(N[C@@H](Cc1ccccc1)C(=O)NCCN1CCCCC1)c1ccc(O)c(-c2ccc(Cl)c(Cl)c2)c1`, the IC50 was found to be 1520 nM.
The figure for `COCCNCc1ncsc1-c1ccc2c(Nc3cc(O)c(Cl)cc3F)ccnc2c1` is 550 nM.
`Cc1ccc(-c2ccc3c(c2)C=C(C(=O)NC2CCN(CCNC(=O)c4cccs4)CC2)CCC3)cc1`: the IC50 was 230 nM.
Molecule `COc1cc2nc(N3CCC(CNC(=O)c4cccc5cc[nH]c45)CC3)nc(N)c2cc1OC` returned an IC50 of 1580 nM.
`CC(C)CCNc1nc(NCCc2ccccc2)c2cc(O)ccc2n1` had an IC50 of 240 nM. Against the preceding molecule, the IC50 is about 6.6-fold lower.
`O=C1OC(c2ccccc2)(c2ccccn2)CN1C1CCN(Cc2cccn2-c2ccc(Cl)cc2)CC1` (configuration not stated): the IC50 was 470 nM.
The value for `O=C(NC1CCC(CN2CCC(c3c[nH]c4ccccc34)CC2)CC1)c1ccc(-c2cc(C(F)(F)F)ccc2Cl)o1` (configuration not stated) was 710 nM.
The figure for `CCOC(=O)N1CCN(C(=O)Nc2ccc(Cl)cc2)CC1` is 1520 nM; for `CC(=O)c1cccc(S(=O)(=O)NCCCNc2nc3cc(C)cc(C)c3cc2C#N)c1` it is 910 nM; for `CCOC(=O)Nc1cc(-c2csc(N=C(N)N)n2)cc([N+](=O)[O-])c1` it is 820 nM.
The molecule `CCCNCc1ccc(-c2ccc(CN(CC3CCCO3)C(=O)C3CC(=O)c4ccccc43)cc2)nc1` (configuration not stated) returned an IC50 of 860 nM.
The value for `N#Cc1ccc(CN2CCC(Oc3ccc(NC(=O)c4ccco4)cc3Cl)C2)cc1` (configuration not stated) was 330 nM; that for `O=C(/C=C/c1ccc(Cl)c(Cl)c1)NCCC1CCC(N2CCC(c3c[nH]c4ccc(O)cc34)CC2)CC1` (configuration not stated) was 760 nM.
The molecule `O=C(Nc1ccc(Oc2ccccc2)cc1)N(Cc1ccc(-c2ccc(CN3CCNCC3)cc2)cc1)C1CCN(Cc2ccccc2)CC1` returned an IC50 of 890 nM.
The figure for `Cc1cccc2[nH]c(-c3ccc(-c4ccc(NC(=O)NCc5cccc(F)c5)cc4)s3)nc12` is 890 nM.
Molecule `COC(=O)[C@@H](NC(=O)[C@@H](Nc1ccc(C#N)c2ccccc12)C(C)(C)C)c1ccc(O)cc1` showed an IC50 of 780 nM.
Consider `COc1ccc(-c2ccc(CNC(=O)c3ccc(C#N)cc3)c(F)c2)cc1CN1CCCN(C)CC1`, for which the IC50 turned out to be 1140 nM.
Take `O=C(Nc1ccc2c(c1)CCN2C1CCN(Cc2ccc(F)cc2Cl)C1)c1ccco1` (configuration not stated): the IC50 was 470 nM.
In the case of `COc1ccc2nccc([C@@H](O)CN3CCC(NC(=O)c4ccc(Oc5ccccc5)cc4)CC3)c2c1`, the IC50 amounted to 1380 nM.
Regarding `CON(CCCN(C)C)C(=N)N`, the IC50 turned out to be 1080 nM.
The molecule `Cc1cc2c(cc1C(F)(F)F)N(C(=O)Nc1cnc(OCCN(C)C)c(C(F)(F)F)c1)CC2` displayed an IC50 of 970 nM.
The figure for `Cc1ccc2c(O)c([N+](=O)[O-])c(=O)[nH]c2c1` is 420 nM; for `CC(=O)Nc1ccc(OCCCCN(Cc2ccccc2C(F)(F)F)c2ccc(C#N)c(C(F)(F)F)c2)cc1` it is 1390 nM; for `COc1ccc(NC(=O)C=Cc2ccc(Oc3ccccc3Cl)c([N+](=O)[O-])c2)cc1OCCN(C(C)C)C(C)C` it is 880 nM.
The figure for `CC(CCCC(=O)Nc1ccc(CC(C)NCCc2cccc(Cl)c2)cc1)NCCc1cccc(Cl)c1` (configuration not stated) is 620 nM.
Turning to `CN1CCC(N2CCN(Cc3ccc(-c4ccc(-c5nc6ccc(F)cc6[nH]5)s4)cc3)CC2)CC1`, the IC50 turned out to be 150 nM. This IC50 is about 4.1-fold lower than that of the molecule before.
`O=C(NCC1CCC(C(=O)O)CC1)c1ccc(/C=C/C(=O)N2CCc3ccccc3C2c2ccc3c(c2)OCO3)cc1` (configuration not stated) came in with an IC50 of 890 nM. Compared with the last molecule, the IC50 is about 5.9-fold higher.
Consider `Cc1[nH]c2ccccc2c1C1=CCN(CCN2CCCc3c(Br)cccc3C2=O)CC1`, for which the IC50 is 660 nM.

The values above are taken from PubChem BioAssay AID2305 (GlaxoSmithKline (GSK), 2010).
